Cytotoxicity data for 97 compounds are collected here from ChEMBL document CHEMBL3507680, “University of Dundee, Gates Library screen for HepG2 cell viability”.

The nature of this data set: Human HepG2 cell viability assay in 384 well format. Format: toxicity, cell-based. Further details: dose 125 nL, time 70.5 hour; concentration not given beside the values. The note with it: HepG2 cells, read-out: Inhibition.
Consider `O=c1ccc2c([nH]1)CCC(NCc1ccncc1)C2` (configuration not stated), for which the cytotoxicity at 70.5 h is -2.51%. On to `Cc1cc(C(=O)NCC(=O)NC(c2ncccc2C)C(C)C)c(C)o1` (configuration not stated), for which the cytotoxicity at 70.5 h worked out at 3.7%. With `COc1ccc(CCNC(=O)NCc2cccc(C(N)=O)c2)cc1OC`, the cytotoxicity at 70.5 h is -15%. With `CC(C)c1nc(CN(C)C(=O)c2ccccc2C2CCNC2)cs1` (configuration not stated), the cytotoxicity at 70.5 h is -8.26%. For `Cc1cc(-c2cnc(N3CCNC(=O)C3)nc2-c2sccc2C)on1`, the cytotoxicity at 70.5 h was -6.64%. As for `COC1(CNS(=O)(=O)c2ccccc2Cl)CCSC1` (configuration not stated), the cytotoxicity at 70.5 h is -7.26%. Regarding `CCc1cnc(N2CC3(CCN(S(=O)(=O)C4CC4)C3)C2)nc1`, the cytotoxicity at 70.5 h is -8.49%. As to `COc1ccccc1C(=O)N(C)Cc1nnc2ccccn12`, the cytotoxicity at 70.5 h was -14%.

Consider `COc1cc(C)nc(N2CCN(C(=O)COCC3CC3)CC2)n1`, for which the cytotoxicity at 70.5 h was -3.61%.

Take `C[C@@H]1CCC[C@H](C)N1CC(=O)N1CCc2[nH]c(-c3ccccc3)nc2C1`: the cytotoxicity at 70.5 h was 27%. The same measure for `CCOCC1CN(S(=O)(=O)CC)Cc2nn(C)cc21` (configuration not stated): -8.48%; for `Cc1nc(C(=O)N2CCc3c(nc(-c4ccncc4)[nH]c3=O)C2)cs1`: -8.1%. `O=C(NCc1nc(C2CC2)no1)N1CCOC(c2ccccc2F)C1` (configuration not stated): the cytotoxicity at 70.5 h was -3.4%. `Cc1cnn(C2CCCN(C(=O)c3ccnc(-n4cncn4)c3)C2)c1` (configuration not stated): the cytotoxicity at 70.5 h is -7.22%. Take `O=C1N[C@@H]2CCN(C(=O)C3CCCC3)[C@@H]2C(=O)N1c1ccc(F)cc1`: the cytotoxicity at 70.5 h is -2.52%. For `Cc1ccc(C)c(Oc2cc(-n3nc(C)c(C#N)c3N)nc(C)n2)c1`, the cytotoxicity at 70.5 h was -6.07%.

Consider `CC(C)(C)CC(NC(=O)N1CCS(=O)(=O)CC1)C(F)(F)F` (configuration not stated), for which the cytotoxicity at 70.5 h was -4.28%. Regarding `CN(CCc1ccc2c(c1)CCO2)CC1CCS(=O)(=O)C1` (configuration not stated), the cytotoxicity at 70.5 h is -9.73%. Next, `Cc1nnnn1-c1cc(NCc2cc(C#N)ccc2F)ccc1F`: -10.8%; `CC(C)(C)OC(=O)N[C@H]1CCN(C(=O)c2cc(Cl)c[nH]2)C1`: -4.47%; `COc1cccc(C(C)N2CCN(S(=O)(=O)CCCF)CC2)c1` (configuration not stated): 34.9%.

On to `CN(C)C(CNC(=O)CCNC(=O)OCC(F)(F)F)c1ccsc1` (configuration not stated), for which the cytotoxicity at 70.5 h is -0.647%. As to `Cc1nc(COCc2cnc3n2CCN(C(=O)C2CC2)C3C)cs1` (configuration not stated), the cytotoxicity at 70.5 h came to 11.4%. For `CS(=O)(=O)Nc1cccc(CNC(=O)c2cccs2)c1`, the cytotoxicity at 70.5 h stood at 19%.

As for `CCS(=O)(=O)N1CCCC2(CCCN2Cc2cccc(Cl)c2)C1` (configuration not stated), the cytotoxicity at 70.5 h was -4.53%.

Regarding `NC(=O)C1CCN(CCCNC(=O)Nc2nncs2)CC1`, the cytotoxicity at 70.5 h is -14.5%.

Consider `O=C(c1ccc(N2CCOCC2)cc1)N1CCCC(n2ccnc2)C1` (configuration not stated), for which the cytotoxicity at 70.5 h is 20.8%.

`CN(Cc1cc2c(cc1OC(F)F)OCO2)Cc1nccn1C`: the cytotoxicity at 70.5 h is -3.97%. Consider `Clc1ccc(CN2CCCC2Cn2cncn2)c2ncccc12` (configuration not stated), for which the cytotoxicity at 70.5 h was -2.37%. `CCc1nc(C2CCCN2C(=O)CCc2nc(C(C)(C)C)no2)no1` (configuration not stated): the cytotoxicity at 70.5 h worked out at 15.3%. On to `O=C1CC2(CCSC2)C(=O)N1Cc1coc(-c2ccccc2)n1` (configuration not stated), for which the cytotoxicity at 70.5 h worked out at 2.52%.

As for `CCOc1cc(CNCc2ncc[nH]2)c(Cl)cc1OC(C)C`, the cytotoxicity at 70.5 h stood at 20.6%. On to `Cc1nn(C)cc1CN(Cc1ccccn1)Cc1ccccc1Cl`, for which the cytotoxicity at 70.5 h turned out to be 4.5%.

For the compound `Cc1cc(N2CCN(C(=O)CCc3scnc3C)CC2)cc(C)n1`, the cytotoxicity at 70.5 h was 21.2%. Consider `O=C(COc1cccc(F)c1)N1C[C@@H](CN2CCCC2)C[C@H](CO)C1`, for which the cytotoxicity at 70.5 h amounted to 0.446%. `CCCS(=O)(=O)N1CCC2(CC1)CC(=O)N(Cc1cc(F)cc(F)c1)C2`: the cytotoxicity at 70.5 h is -7.19%. As for `Cc1nc(CNC(=O)c2cc(COc3ccccc3F)[nH]n2)n[nH]1`, the cytotoxicity at 70.5 h turned out to be 17.2%.

For the compound `Cc1nn(C)c(Cl)c1C1CCCN1C(=O)c1cnc[nH]1` (configuration not stated), the cytotoxicity at 70.5 h is -12.8%.

Regarding `O=C(NC1(c2cccc(F)c2)CCOCC1)c1ccoc1`, the cytotoxicity at 70.5 h is -6.8%. `COc1ccc(OCc2cc(C(=O)N3CCCCO3)n[nH]2)c(Cl)c1`: the cytotoxicity at 70.5 h is -19.5%. Take `Cc1ccc(SCC2CNc3nc4ccccc4c(=O)n32)c(C)c1` (configuration not stated): the cytotoxicity at 70.5 h was 20%. `CC(C)CS(=O)(=O)CC(=O)N1CCCC1c1noc(C2CC2)n1` (configuration not stated): the cytotoxicity at 70.5 h is -8.35%.

`NC(=O)CN1CCC(c2cncc(-c3cccc(Cl)c3)n2)CC1`: the cytotoxicity at 70.5 h was 15.3%.

`COc1cc(CN(C)C(=O)NCCC2CCCO2)ccc1SC` (configuration not stated): the cytotoxicity at 70.5 h was -3.73%. Regarding `CC(C)C(=O)N1CCCC(c2cncc(Oc3cccnc3)n2)C1` (configuration not stated), the cytotoxicity at 70.5 h is -2.17%. Next, `Cc1nnc([C@@H]2C[C@H]3CN(C4CCC4)C[C@H]3O2)[nH]1`: -0.989%; `COc1cccc(CN2CCN(C(=O)CN3CCOCC3)CC2)n1`: 0.577%.

Regarding `O=C(N[C@H]1CCCC[C@@H]1O)c1cccc(-c2nc3ccccc3[nH]2)c1`, the cytotoxicity at 70.5 h is -2.51%. For `O=C(Cc1cn2ccsc2n1)N1CCOCC(O)(CN2CCCC2)C1` (configuration not stated), the cytotoxicity at 70.5 h is -4.72%. As to `O=C1CCCC2=C1C(c1ccc(Cl)cc1Cl)Nc1nonc1N2` (configuration not stated), the cytotoxicity at 70.5 h was -1.65%.

Consider `CC(NC(=O)N(C)Cc1ccncc1)c1cn(-c2ccccc2)nn1` (configuration not stated), for which the cytotoxicity at 70.5 h was found to be 4.1%.

Turning to `CCCn1cc(Cl)c(C(=O)N2C[C@H]3C[C@H](OC)C[C@H]3C2)n1`, the cytotoxicity at 70.5 h worked out at 3.23%. Turning to `O=C(NC1CCN(c2ncccn2)CC1)c1sccc1C1CC1`, the cytotoxicity at 70.5 h was -5.49%. `Cc1cc(=O)[nH]c(SC(C)C(=O)N2CCC(NS(C)(=O)=O)CC2)n1` (configuration not stated): the cytotoxicity at 70.5 h was 2.17%. `CC(C)OCCOCc1cccc(NC(=O)NCc2ccccn2)c1`: the cytotoxicity at 70.5 h is -8.39%. The same measure for `CC(NC1(CNS(C)(=O)=O)CCCC1)c1ccccc1` (configuration not stated): -16.9%. As for `CCCOc1cccc(NC(=O)NC2CCc3nc(C)nn3C2)c1` (configuration not stated), the cytotoxicity at 70.5 h is -5.39%. For `CN(Cc1ccncn1)C(=O)CCc1[nH]nc2c1CCCC2`, the cytotoxicity at 70.5 h was -5.7%. As for `Cc1ccc2c(n1)N(CC(C)C)CCN(S(C)(=O)=O)C2`, the cytotoxicity at 70.5 h is -6.3%. In the case of `O=C1N(Cc2cccc(F)c2F)CCCC1(O)CN1CCCOCC1` (configuration not stated), the cytotoxicity at 70.5 h is -1.1%. In the case of `CN1CCN(S(=O)(=O)c2ccccc2)Cc2cccnc21`, the cytotoxicity at 70.5 h is -4.28%.

Take `O=C(CNC(=O)C1(c2ccc(F)cc2F)CCC1)Nc1ccccn1`: the cytotoxicity at 70.5 h was -3.32%. For the compound `Cc1cccc(CN2CC[C@@H]3[C@@H]2CCN3C(=O)c2cc(C)oc2C)n1`, the cytotoxicity at 70.5 h is 13.1%. `c1csc(NCc2n[nH]c3c2CCN(CC2CC2)C3)n1`: the cytotoxicity at 70.5 h was -14.2%. Consider `O=C(CC1C=CCC1)N1CCc2ncnc(NCc3ccon3)c2CC1` (configuration not stated), for which the cytotoxicity at 70.5 h stood at 23.6%. In the case of `O=C(c1ccc(O)nc1)N1CCC(Nc2cccnn2)CC1`, the cytotoxicity at 70.5 h was -8.37%. In the case of `Cn1cc(C[C@H]2[C@H](O)CCN2CC2CCOCC2)cn1`, the cytotoxicity at 70.5 h is -6.28%. On to `COc1nc2ccn(CCc3scnc3C)c(=O)c2cc1C#N`, for which the cytotoxicity at 70.5 h is -4.15%.

Regarding `CCn1cc(CN2C[C@H]3CC[C@@H]2CN(C(=O)c2cnccn2)C3)cn1`, the cytotoxicity at 70.5 h was -5.14%. On to `CCC(C)Nc1ccc2c(c1)C1(CCOCC1)C(=O)N2c1ccccc1` (configuration not stated), for which the cytotoxicity at 70.5 h is -7.71%. On to `Cn1cc(N2CC3(CCN(Cc4ccccc4)CC3)OCC2=O)cn1`, for which the cytotoxicity at 70.5 h was 52.7%. Next, `CCn1nnnc1-c1cccc(NC(=O)CCc2cnn(C)c2)c1`: -2.12%; `c1ccc(CN2CCCC2Cn2cncn2)nc1` (configuration not stated): 7.22%; `COCC(=O)N1CC[C@@H]2O[C@@H](COCc3csc(C)n3)CC[C@@H]21`: 4.53%.

`Cc1csc(N2CCN(C(=O)c3c(C)oc(C)c3C)CC2)n1`: the cytotoxicity at 70.5 h was -1.28%.

With `COCCNS(=O)(=O)c1cccc2c1CN(C(=O)c1ccoc1)CC2`, the cytotoxicity at 70.5 h was -10.7%. For the compound `CC(C)CC1SCC(=O)Nc2c1cnn2C(C)C` (configuration not stated), the cytotoxicity at 70.5 h is -9.09%.

`O=C(c1ccccc1)N1CCO[C@@H]2CN(Cc3ccc[nH]3)C[C@@H]2C1`: the cytotoxicity at 70.5 h is 1.61%. `CN(C)CCN1CCOCC12CCN(C(=O)C1CC1)CC2`: the cytotoxicity at 70.5 h was -10.1%. Next, `NC(=O)C1CCN(c2ccc3cc(Br)ccc3n2)C1` (configuration not stated): -89.2%; `Cc1nn(C)c(N2CCCN(C)CC2)c1CNC(=O)C(C)(C)C`: -0.257%; `O=C(CC(F)(F)F)N1CCC2(CCCN(c3nncs3)C2)C1` (configuration not stated): -3.95%. The same measure for `Cc1ccc(NC(=O)NC(C)c2nc[nH]n2)s1` (configuration not stated): -8.03%; for `Cc1csc(CN(CC2CCCO2)C(=O)c2occc2C)n1` (configuration not stated): 22.1%. In the case of `Cc1cc(C)cc(OCCN2CCn3c(C)nnc3C2)c1`, the cytotoxicity at 70.5 h is -4.98%. Turning to `Cc1ncsc1C(=O)N1CCCCC1c1cc2nc(C)c(C)c(O)n2n1` (configuration not stated), the cytotoxicity at 70.5 h was -4.23%. Regarding `CCc1noc(C(C)N2CCC(NC(=O)c3ccc(C)s3)CC2)n1` (configuration not stated), the cytotoxicity at 70.5 h is -7.01%. Take `COCCN(C)CC1CCCN1S(=O)(=O)c1cccc(F)c1F` (configuration not stated): the cytotoxicity at 70.5 h was -4.32%. Turning to `CNCC(=O)N1CCC(c2cccc(Oc3ccccc3)n2)CC1`, the cytotoxicity at 70.5 h is -7.76%. On to `O=C1CC2(CCN(CC3CCOC3)CC2)c2ccccc2N1CC1CC1` (configuration not stated), for which the cytotoxicity at 70.5 h is -1.14%. Next, `CNc1cccc(C2CCCN(C(=O)Cc3ccccc3)C2)n1` (configuration not stated): -7.78%; `CC1C(=O)Nc2cccnc2N1S(=O)(=O)c1cc(F)cc(F)c1` (configuration not stated): 16%; `Cc1ccc(-c2nc(CN3CC(n4nc(C)cc4C)C3)no2)cc1`: -8.79%. Regarding `c1ccc(CN2CC[C@@H]3[C@@H](CO[C@@H]3CNc3ncccn3)C2)nc1`, the cytotoxicity at 70.5 h was -7.29%. `Cc1ccc(C2(O)CCN(Cc3nc(C)n4ccccc34)CC2)nc1`: the cytotoxicity at 70.5 h was -9.79%. In the case of `c1cnn(CC2CN(Cc3nnc(C4CC4)o3)CCO2)c1` (configuration not stated), the cytotoxicity at 70.5 h was -4.26%.

With `CC1CCc2nn(CCNC(=O)c3cccs3)c(=O)cc2C1` (configuration not stated), the cytotoxicity at 70.5 h turned out to be 25.2%.
